In PubChem BioAssay AID179 (DTP/NCI, 2004):
Active and inactive are the calls of the source.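 The calls were made as follows: active = compounds giving half or more protection of infected cells from virus-caused growth loss, again on retest; inactive = the rest.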 Where a SMILES comes first, the peptide text is derived from it. The star is where a group is joined. Boc = CC(C)(C)OC(=O)*

Tested on: CEM cells HIV-1 protection, formazan growth assay
Assay: NCI AIDS Antiviral Assay
Details: for IC50: measured here: growth of uninfected CEM cells
Outline: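 Soluble formazan readout of cell growth; CEM cells ± HIV-1; 5 drug concs. ≥50% protection → retest; ≥50% again = moderately active; reproducible 100% = confirmed active.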

| Structure (SMILES) | outcome | EC50 [µM] | IC50 [µM] |
| --- | --- | --- | --- |
| O=C1CCCCCCCCCCC1CN(Cc1ccccc1)Cc1ccccc1 (configuration not stated) | inactive |  |  |
| COc1cc2c[n+](C)c3c(c2cc1OC)Cc1cc(OS(C)(=O)=O)c(OC)cc1-3 |  | > 57.5 | 10.5 |
| Nc1nc(CC2(O)CCCCC2)cc(-c2ccccc2)n1 |  | > 1.95 | > 1.95 |
| NC(=O)C(=O)n1ncc(Cl)c(Cl)c1=O |  | > 30.9 | > 30.9 |
| CC(=O)c1ccc(N=Nc2ccc3nonc3c2N)cc1 |  | > 200 | > 200 |
| CCOC(=O)c1cn(CC)c2ccc3c(c2c1=O)S(=O)(=O)C=C3 |  | > 200 | 29.5 |
| CC(C)(C)OC(=O)N1CCc2[nH][nH]c(=O)c2C1 |  | > 200 | > 200 |
| O=C1CC(CC(O)C2CCCC2O)CC(=O)N1 (configuration not stated) |  | > 200 | > 200 |
| COC(=O)[C@H](CO)NC(=O)CC/C(C)=C/c1ccccc1 |  | > 200 | 191 |
| CCOC(=O)c1c(N)nnc(-c2ccccc2)c1-c1ccccc1 |  | > 200 | 129 |
| O=C(CNc1ccc(Cl)cc1Cl)Nn1c(-c2ccccc2)nc2ccccc2c1=O |  | > 200 | 10.5 |
| CC[C@]1(Cc2ccc(OC)c(OC)c2)C=[N+]([O-])O[C@H](OC2CCCCC2c2ccccc2)[C@@H]1OC(C)=O (some centres not stated) |  | > 200 | 30.2 |
| Nc1nc(N)c(N=O)c(Nc2cccc(Br)c2)n1 |  | > 200 | 8.51 |
| O=C(NCCc1ccccn1)c1ccc2cc(C(=O)N3CC(CCl)c4ccc([N+](=O)[O-])cc43)[nH]c2c1 (configuration not stated) |  | > 200 | 74.1 |
| O=C1CC2C(=O)N(Cc3ccccc3)C1C=C2S(=O)(=O)c1ccccc1 (configuration not stated) | inactive |  |  |
| CC(C)(C)c1cc(CCC(=O)Nc2ccc(Cl)cc2)[nH]c(=S)n1 |  | > 513 | > 513 |
| CCN(C(=O)N[C@@H](C)C(=O)N[C@@H](Cc1ccccc1)C(=O)OC)c1ccccc1 | inactive |  |  |
| CC(C)(C)OC/C=C1\C(=O)O[C@H]2C[C@@H](O[Si](C)(C)C(C)(C)C)C[C@@H]12 |  | > 200 | 39.8 |
| Cc1ccc2cc([N+](=O)[O-])c3ccc(C)nc3c2n1.Cc1ccc2cc([N+](=O)[O-])c3ccc(C)nc3c2n1.O=C1OC(C(O)C[O-])C(O)=C1O.[Cu+] |  | > 12.6 | 1.82 |
| ClC/C=C/C[P+](c1ccccc1)(c1ccccc1)c1ccccc1 |  | > 200 | 3.16 |
| Cn1/c(=N\S(=O)(=O)c2ccccc2)n(S(=O)(=O)c2ccccc2)c2ccccc21 |  | > 200 | > 200 |
| COc1ccc2c(c1OC)C(=O)c1ccoc1C2=O | inactive |  |  |

| Structure (SMILES) | outcome | EC50 [µM] | IC50 [µM] |
| --- | --- | --- | --- |
| CN(N=O)C(=O)NC(C=O)C(O)C(O)C(O)CO (configuration not stated) |  | > 200 | > 200 |
| CCN(CC)CC1CCCCN1CC(=O)N1c2cc(Cl)ccc2NC(=O)CC1C (configuration not stated) |  | 97.7 | > 200 |
| CCOC(=O)C(NC(=O)c1cccc(Cl)c1)(Nc1cccc(C)c1)C(F)(F)F (configuration not stated) |  | > 200 | 17.4 |
| C/C(=N\NC(N)=S)c1ccc(Oc2ccccc2)cc1 | inactive |  |  |
| CC1C2c3ccccc3C(c3ccccc32)C1CN1C(CCO)COC1c1ccccc1 (configuration not stated) |  | > 200 | 38 |
| COC1Cc2ccccc2C1O (configuration not stated) | inactive |  |  |
| CCOCC(NC(=O)C(CC(C)C)NC(=O)OC(C)(C)C)C(N)=O (stereo not drawn) (Boc-Leu-Ser(Et)-NH2; configuration not given here) |  | > 200 | > 200 |
| CC(=O)[O-].[O-]c1c(Cl)cc(Cl)cc1/C=N/Nc1ccccn1.[Zn+2] | inactive |  |  |
| Cc1ccc(Cc2n[nH]c(=O)n2/N=C\CC/C=N\n2c(Cc3ccc(C)cc3)n[nH]c2=O)cc1 |  | > 200 | 120 |
| CN1CC(C)(C)C(=O)c2ccccc21 |  | > 200 | > 200 |
| COc1cc(OC)cc(Oc2nc3c(N)cc(C(F)(F)F)cc3nc2-c2ccccc2)c1 |  | > 200 | > 200 |
| CC1(CC(=O)OC(C#C[Si](C)(C)C)Cc2ccccc2)OCCO1 (configuration not stated) |  | > 200 | 102 |
| Cc1c[nH]c(C(=O)O)c1-c1cccn1-c1ccc(Cl)cc1[N+](=O)[O-] |  | > 200 | 87.1 |
| CCCCCCCCCCCCCC(=O)CC(=O)c1c(O)cccc1O | inactive |  |  |
| N#CC(/C=C/c1ccccc1)Nc1ccccc1 (configuration not stated) |  | > 22.4 | > 22.4 |
| Cc1cccc2c1[C@]13OC(C)[C@]4(C)CC5OC(=O)[C@@]1(C)[C@@H]5[C@]34C(=O)O2 (some centres not stated) |  | > 200 | > 200 |
| CS(=O)(=O)NC(=O)C[P+](c1ccccc1)(c1ccccc1)c1ccccc1 |  | > 200 | > 200 |
| NS(=O)(=O)c1nnc(NC(=O)Nc2ccc(Cl)c(Cl)c2)s1 |  | > 200 | 26.3 |
| CCOC(=O)c1cc(Br)c(-c2cc(C)co2)[nH]1 |  | > 200 | > 200 |
| Cc1nc2ccccc2c(=O)n1-c1ccccc1I |  | > 100 | > 100 |
| CC(=O)O[C@H]1CCC2[C@@H]3CCC4Nc5c(cnn5-c5ccccc5)C[C@]4(C)C3CC[C@@]21C (some centres not stated) | inactive |  |  |
